The values below come from patent publication US9815788B2, “Anti-angiogenic compounds” (University College Dublin National University of Ireland, …, priority 2012, dated 2017).

Test [1] concerns the target T1, cysteinyl-leukotriene CysLT1 (Cavia porcellus, UniProt Q2NNR5).
T1 construct: a lung strip obtained from Duncan Hartley derived male or female guinea pigs; from tissue; host or cells: guinea pig lung strip
T1 sequence (Q2NNR5 1-340): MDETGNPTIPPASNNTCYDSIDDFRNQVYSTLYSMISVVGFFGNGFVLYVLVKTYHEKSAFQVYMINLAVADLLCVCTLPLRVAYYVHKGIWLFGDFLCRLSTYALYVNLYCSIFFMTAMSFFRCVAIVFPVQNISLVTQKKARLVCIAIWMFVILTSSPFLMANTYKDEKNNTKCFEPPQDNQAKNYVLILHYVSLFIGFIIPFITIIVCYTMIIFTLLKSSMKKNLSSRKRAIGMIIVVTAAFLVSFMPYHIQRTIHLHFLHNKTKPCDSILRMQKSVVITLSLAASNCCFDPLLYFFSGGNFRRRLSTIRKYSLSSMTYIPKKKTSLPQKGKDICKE
The test can be described thus: Ex vivo cysteinyl leukotriene guinea pig lung strip assay. The settings on record: 30 μM, 3 nM leukotriene D4. The protocol: (§1) FIG. 15 tables the percentage inhibition by compounds 11B_CC11_HCl and 11B_CC16_HCl on the cysteinyl leukotriene pathway in in vitro and ex vivo assays. […] For in vitro cysteinyl leukotriene cell-based assays 11B_CC11_HCl and 11B_CC16_HCl, were tested at 30 μM concentration in duplicate, in a single experiment for their ability to inhibit the calcium mobilisation response of the CysLT1 receptor to 0.1 nM leukotriene D4 in CHO cells over-expressing the CysLT1 receptor or the calcium mobilisation response of the CysLT2 receptor to 30 nM of leukotriene C4 in HEK 293 cells over expressing the CysLT2 receptor.
(§2) Target profiling using Cerep and Eurofins/Panlabs profiling screens was undertaken using 11B_CC11_HCl and 11B_CC16_HCl in order to investigate the mechanism of action. […] Test substance (30 LM)-induced isometrically recorded contraction by 50 percent or more within 5 min, relative to control 3 nM leukotriene D4 response, indicates possible cysteinyl-leukotriene LT1 receptor agonist activity. […] To measure inhibition of cysteinyl leukotriene 1 (CysLT1 [LTD4]) and cysteinyl leukotriene 2 (CysLT2 [LTC4]) receptor activity, calcium mobilisation was measured using Fluor-3-loaded CHO cells (for cysLT1 assays) or HEK-293 cells (for CysLT2 assays) which stably express either the CysLT1 or CysLT2 receptors. […]

In a further test the target is T2, CysLT1 receptor (Homo sapiens, UniProt Q9Y271).
T2 construct: host or cells: CHO cells
T2 sequence (Q9Y271 1-337): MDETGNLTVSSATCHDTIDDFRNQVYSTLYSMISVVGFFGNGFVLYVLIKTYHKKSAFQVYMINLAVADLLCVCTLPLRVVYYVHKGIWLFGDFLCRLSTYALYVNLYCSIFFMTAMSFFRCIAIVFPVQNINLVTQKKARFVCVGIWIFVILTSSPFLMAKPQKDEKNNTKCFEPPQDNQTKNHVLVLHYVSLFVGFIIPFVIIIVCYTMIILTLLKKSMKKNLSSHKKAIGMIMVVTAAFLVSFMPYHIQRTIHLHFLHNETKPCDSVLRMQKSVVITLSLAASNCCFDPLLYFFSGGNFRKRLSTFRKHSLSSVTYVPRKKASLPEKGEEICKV
In words: CysLT1 calcium mobilisation assay in CHO cells. It is filed as cell-based. The conditions noted are these: 0.1 nM LTD4, CHO cells expressing CysLT1, read-out: inhibition of calcium mobilisation (CysLT1 antagonism). The protocol:
as §1, §2
(Calcium assays in cells follow changes in intracellular calcium, usually with a dye or a luminescent sensor.)

For the next test, the target named is T3, CysLT2 receptor (Homo sapiens, UniProt Q9NS75).
T3 construct: host or cells: HEK 293 cells
T3 sequence (Q9NS75 1-346): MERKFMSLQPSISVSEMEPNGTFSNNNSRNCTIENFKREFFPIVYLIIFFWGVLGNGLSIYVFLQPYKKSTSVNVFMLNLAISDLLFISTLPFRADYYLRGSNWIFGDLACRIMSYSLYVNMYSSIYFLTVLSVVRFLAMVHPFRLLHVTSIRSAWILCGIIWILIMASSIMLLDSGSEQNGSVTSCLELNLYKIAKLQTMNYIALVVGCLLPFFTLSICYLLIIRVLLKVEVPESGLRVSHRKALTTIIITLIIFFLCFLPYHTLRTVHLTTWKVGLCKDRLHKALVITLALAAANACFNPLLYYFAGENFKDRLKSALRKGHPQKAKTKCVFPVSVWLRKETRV
The test can be described thus: CysLT2 calcium mobilisation assay in HEK 293 cells. Type of test: cell-based. The settings on record: HEK293, 30 nM LTC4, HEK-293 cells expressing CysLT2, read-out: inhibition of calcium mobilisation (CysLT2 antagonism). The protocol: as §1, §2

As usually defined, the inhibition is the change of the read-out against control, counted positive when it falls. In the case of `Cl.Oc1ccccc1C#Cc1ccc2ccccc2n1` [Compound 11B_CC16_HCl, 2-Quinolin-2-yl-ylethynyl-phenol HCl salt], in test [1], the “reduction of the leukotriene D4-induced contractile response” value amounted to 100%. The inhibition at 30 µM was 137% at CysLT1 receptor and 48% on CysLT2 receptor.
